# Target: Cathepsin D (Homo sapiens, UniProt P07339)
# Experiment: Enzyme Inhibition Measurements
# Settings: 25 °C
# Chain of Cathepsin D (P07339 65-162 limits assumed): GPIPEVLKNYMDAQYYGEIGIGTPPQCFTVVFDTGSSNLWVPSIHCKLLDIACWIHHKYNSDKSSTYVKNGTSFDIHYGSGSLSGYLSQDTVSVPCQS
# Chain of Cathepsin D (P07339 169-412 limits assumed): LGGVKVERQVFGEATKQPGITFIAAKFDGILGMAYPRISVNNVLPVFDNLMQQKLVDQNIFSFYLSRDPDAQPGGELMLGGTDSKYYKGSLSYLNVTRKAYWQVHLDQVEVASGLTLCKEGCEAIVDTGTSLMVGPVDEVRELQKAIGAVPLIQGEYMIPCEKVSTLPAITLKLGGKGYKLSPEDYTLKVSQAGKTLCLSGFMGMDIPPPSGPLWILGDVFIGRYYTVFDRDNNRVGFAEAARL
structure (smiles),measurement,value
"CCCCNC(=O)[C@@H](NC(=O)[C@@H]1OCC[C@H]1[C@H](O)[C@H](CC(C)C)NC(=O)[C@H](CCSC)NC(=O)[C@H](CC(C)C)NC(C)=O)C(C)C [(2S)-N-[(1S)-1-{[(1S,2S)-1-[(2R,3S)-2-{[(1S)-1-(butylcarbamoyl)-2-methylpropyl]carbamoyl}oxolan-3-yl]-1-hydroxy-4-methylpentan-2-yl]carbamoyl}-3-(methylsulfanyl)propyl]-2-acetamido-4-methylpentanamide]",IC50,280 nM
